According to US8642559B2, “C-terminal domain truncation of mGluR1α by calpain and uses thereof” (priority 2006, dated 2014):
Where a SMILES comes first, the peptide text is derived from it. The star is where a group is joined. Cbz = O=C(OCc1ccccc1)*

Assays:
[1] = system: Phospho Akt (Ser473); assay: Akt phosphorylation (Ser473) in cortical neurons (Western blot); format: cell-based; conditions: DHPG 50 μM, 10 min in presence of LY367385
Procedure: Representative current traces recorded from HEK293 cells transfected with either myc-mGluR1α (left panel) or myc-mGluR1α936Δ (right panel) and GIRK1, GIRK2 (top) or TRPC1 (bottom). DHPG (100 μM in extracellular solution) was applied using a fast perfusion system for the duration indicated by the scale bars. Each trace is the average of 5 continuous sweeps. The bar graphs represent the means±S.E.M. of DHPG-induced current amplitude recorded in cells transfected with myc-mGluR1α or myc-mGluR1α936Δplus GIRK1, GIRK2 (top right) or TRPC1 (bottom right) (n=3-7). In FIG. 6B, cortical neurons were pre-treated with NMDA (50 1μM, 1 h). Two hours after washing NMDA, neurons were treated with the mGluR1 agonist DHPG (50 μM) for 10 min in the absence or presence of LY367385. Total cell lysates were collected and probed with anti-Phospho Akt (Ser473) antibody. Without pretreatment with NMDA, DHPG increased the levels of Phospho-Akt (* p<0.05), an effect blocked by LY367385.
As reported in previous studies, mGluR1 activation can stimulate the PI3K-Akt signaling pathway through the mGluRI-Homer-PIEL-PI3K signaling complex. Since the Homer-binding domain of mGluR1α is located in the extreme C-terminus, which is removed after calpain-mediated truncation, it was interesting to determine whether this signaling mechanism remained functional. We first induced mGluR1α truncation by treating cortical neurons with 50 μM NMDA for 1 hour. Two hours after washing out NMDA, neurons were incubated with the mGluRI agonist DHPG (50 μM) for 10 min. Neurons were then lysed and levels of phosphorylated Akt were determined on Western blots. Consistent with a previous study, in cortical neurons that were not pre-treated with NMDA, DHPG induced an increase in phosphorylated Akt levels (p<0.05, n=4, Student's t-test for Control vs. DHPG), an effect which was blocked by the mGluR1 selective antagonist LY367385 (p<0.05, n=4, for DHPG+LY367385 vs. DHPG) (FIG. 6B). […] Thus, mGluR1α-PI3K-Akt signaling pathway was disrupted by calpain-mediated mGluR1α truncation.

[2] = system: cortical neurons; assay: NMDA/DHPG neuronal toxicity in cortical neurons (EthD-1/Calcein AM live/dead); format: cell-based; conditions: 100 μM LY367385 co-applied with 100 μM DHPG
Source text: In FIGS. 8a and b, cortical neurons were co-transfected with green fluorescent protein (GFP) and vector DNA, myc-mGluR1α or myc-mGluR1α936Δ, respectively. […] Twelve hours later, neurons were stained with EthD-1 to label dead cells. Arrowheads in FIG. 8a indicate EthD-1 positive GFP-expressing neurons. * p<0.05. FIGS. 8c and d are representative photos and bar graphs showing differential roles of endogenous mGluR1 in neuronal toxicity before and after NMDA-induced truncation. Cortical neurons were treated as indicated and were stained with EthD-1 (for dead cells) and calcein AM (for live cells) 24 hours later. * p<0.001.
We then tested whether calpain-mediated truncation of endogenous mGluR1α also alters its roles in excitotoxicity. We used NMDA to elicit mGluR1α truncation and evaluated the roles of mGluR1 in neuronal toxicity by applying DHPG before and after truncation. Fourteen DIV cortical neurons cultured on 18×18 mm coverslips were divided into 6 groups, which received the following treatments, respectively: 1) “Control”: vehicle; 2) “NMDA”: 100 μM NMDA for 1 hour; 3) “DHPG before NMDA”: DHPG, 100 μM, for 1 hour, followed by 100 μM NMDA for 1 hour; 4) “DHPG after NMDA”: NMDA, 100 μM, for 1 hour, followed by 100 μM DHPG for 1 hour; 5) “DHPG+LY before NMDA”: 100 μM DHPG was co-applied with 100 μM LY367385 for 1 hour and followed by 100 μM NMDA for 1 hour; 6) “DHPG+LY after NMDA”: NMDA 100 μM for 1 hour, followed by 100 μM DHPG co-applied with 100 μM LY367385. Twenty-four hours after treatment, all neurons were stained for 20 minutes with 0.5 μM EthD-1 to label dead cells and 2 μM Calcein AM to label live cells. After three washes with culture medium, coverslips were mounted and one microscopy photo was immediately taken from the center area of each coverslip. EthD-1 and Calcein AM positive cells on each photo were then counted. The percentage of cell death was calculated as the number of EthD-1 positive cell/(number of EthD-1 positive cell+number of Calcein AM positive cell)*100%.

[3] = system: mGluR1α; assay: Glutamate/NMDA-induced C-terminal truncation of mGluR1α in cultured cortical neurons (immunoblot); format: cell-based; conditions: for block of glutamate-induced truncation of mGluR1α: glutamate 100 μM, antagonist 100 μM
Source text: Total cell lysates were separated by SDS-PAGE and probed with an antibody against the carboxyl terminus (residue 1142-1160) of mGluR1α. […] Total cell lysates were probed with an anti-myc antibody. […] Total cell lysates were probed with antibodies against mGluR5, G1uR2/3 and VGluT1 respectively.
Total cell lysate was collected immediately after treatment and subjected to SDS-PAGE and immunoblotting with an antibody against the carboxyl terminus (residues 1142-1160) of mGluR1α (FIG. 2A). […] Neurons were transfected with a calcium phosphate precipitation method modified for high transfection rate (Jian et al., Gene Ther 11:1301-1311, 2004).
Cortical neurons were treated with NMDA at the indicated concentrations for 1 h or treated with NMDA (10 μM) for the indicated times. Total cell lysates were separated by SDS-PAGE and probed with antibodies against mGluR1α1142-1160, Results were normalized over control values and are means±s.e.m. of 4 experiments.
To determine whether activation of mGluR1α itself was required for the truncation, two distinct mGluR1α antagonists were applied.
To further characterize NMDA-induced mGluR1α truncation, the concentration- and time-dependencies of the effects of NMDA were studied. Cortical neurons were first incubated with different concentrations of NMDA for a fixed period of time (1 hour) (FIG. 3F). […] In a following experiment, cortical neurons were incubated with 10 μM NMDA for different durations ranging from 1 to 60 min (FIG. 3G).
Cortical neurons were treated with NMDA (10 μM, 1 h). Total cell lysates were separated by SDS-PAGE and probed with antibodies against spectrin and mGluR1α1142-1160, respectively. Only the degradation bands of spectrin (spectrin DB, at ˜145 KD) are shown. […] In FIG. 4C, purified myc-mGluR1α was digested with μ-calpain at the indicated concentrations (U/ml) for 30 min. The digested material was processed for SDS-PAGE and subjected to silver staining or immunoblots with anti-myc or anti-mGluR1α1142-1160 antibodies. […] The 1st lane was the myc-mGluR1α immunoprecipitated from 293 cells; the 2nd and 3rd lanes were immunoprecipitated myc-mGluR1α digested with indicated concentration of calpain. […] FIG. 4F is the alignment of mGluR1 (902-941) and mGluR5 (889-927) surrounding the calpain cleavage site.
In this set of experiments, we determined which protease(s) mediated NMDA-induced truncation of mGluR1α. […] Cortical neurons were pretreated with a calpain inhibitor, the cell-permeable calpain-inhibitor III, or the caspase inhibitor cpm-VAD-CHO for 2 hours and then incubated in the absence or presence of 100 µM NMDA for 1 hour. […] To further confirm calpain activation by NMDA under our experimental conditions, we determined the levels of the calpain-specific spectrin degradation fragments.

[4] = system: spectrin; assay: NMDA-induced calpain-specific spectrin degradation (145 kD fragment) in cortical neurons; format: cell-based; conditions: NMDA 10 μM, 1 h
Procedure: In this set of experiments, we determined which protease(s) mediated NMDA-induced truncation of mGluR1α. […] Cortical neurons were pretreated with a calpain inhibitor, the cell-permeable calpain-inhibitor III, or the caspase inhibitor cpm-VAD-CHO for 2 hours and then incubated in the absence or presence of 100 M NMDA for 1 hour. […] To further confirm calpain activation by NMDA under our experimental conditions, we determined the levels of the calpain-specific spectrin degradation fragments.

[5] = system: hippocampal neurons; assay: Kainic acid-induced neuronal damage (silver staining) and seizures in mice; format: in vivo; conditions: kainic acid 30 mg/kg s.c., mice, 7 days, silver staining
Procedure: (§1) The tat-peptide was injected i.p. 90 min before kainic acid injection. Note that the peptide had no effect on seizure intensity (bottom left).
They were sacrificed after 7 days and brains processed for silver staining, a marker of cell damage. Note the heavy labeling of the pyramidal cell layer in the KA alone group.
The effect of the tat-mGluR1 peptide on kainic acid-induced neuronal damage was also evaluated.

[6] = system: mGluR1α; assay: In vivo truncation of mGluR1α in hippocampus after kainic acid injection; conditions: kainic acid 30 mg/kg s.c., mice
Procedure: as §1
The objective of this set of experiments was to verify that the feedback mechanism of the present invention could take place in vivo and participate in excitotoxicity. We used the kainic acid model of excitotoxicity, as this model has been widely used to study the mechanisms underlying in vivo excitotoxicity (Wang et al. Mol Neurobiol 31:3-16, 2005). Mice were injected with kainic acid and sacrificed at different times after injection. Levels of mGluR1α were determined in hippocampus with both Western blots and immunohistochemistry (FIG. 10).

Cc1cc(C(=O)O)ccc1[C@H](N)C(=O)O [LY367385]
block of DHPG-induced increase in phosphorylated Akt [1]: blocked | block of the neuroprotective effect of DHPG before NMDA [2]: completely blocked | block of the neurotoxic effect of DHPG after NMDA [2]: completely blocked | block of glutamate-induced truncation of mGluR1α ([3]; 1 h): do not block

N[C@@H](CCCP(=O)(O)O)C(=O)O [APV]
block of glutamate-induced truncation of mGluR1α ([3]; 1 h): completely blocked

CC(C(O)c1ccc(O)cc1)N1CCC(Cc2ccccc2)CC1 (stereo not shown) [ifenprodil]
block of NMDA-mediated spectrin degradation ([4]; ifenprodil 10 μM): blocked | block of NMDA-induced truncation of mGluR1α ([3]; NMDA 10 μM, 1 h, ifenprodil 10 μM): selectively blocked

N#Cc1cc2[nH]c(=O)c(=O)[nH]c2cc1[N+](=O)[O-] [CNQX]
block of glutamate-induced truncation of mGluR1α ([3]; 1 h): had no effect

C=C(C)[C@H]1CN[C@H](C(=O)O)[C@H]1CC(=O)O [kainic acid]
neuronal damage in hippocampal pyramidal neurons [5]: marked damage | mGluR1 truncation in hippocampus following kainic acid injection [6]: rapidly truncated

CC(C)[C@H](NC(=O)OCc1ccccc1)C(=O)N[C@H](C=O)Cc1ccccc1 [calpain inhibitor III] (Cbz-Val-Phe-aldehyde)
block of NMDA-induced truncation of mGluR1α ([3]; inhibitor pretreatment 2 hours, then NMDA 100 μM 1 h, Calpi3 10 μM): significantly blocked

C[C@H](NC(c1cccc2[nH]c(=O)c(=O)[nH]c12)P(=O)(O)O)c1ccc(Br)cc1 (stereo partly shown) [NVP-AAM077]
block of NMDA-mediated spectrin degradation ([4]; NVP-AAM077 0.4 μM): not | block of NMDA-induced truncation of mGluR1α ([3]; NMDA 10 μM, 1 h, NVP-AAM077 0.4 μM): not
